Data from US7407948B2, “Photosensitisers and their uses” (priority 2007, dated 2008).
Where two headings read alike, the source gives them in different places.

Legend:
S. aureus = experiment: Photoinactivation of bacteria by phenoselenazinium derivatives (S. aureus); type: cell-based; details: 10 μM photosensitiser, 30 min 37° C., 665 nm laser, 3 J/cm^2 (10 mW/cm^2)
Procedure: (§1) 1 mM stock solutions of the photosensitisers were made up by solubilising the photosensitiser in dimethyl sulfoxide.
(§2) Bacteria (E. coli, S. aureus) and yeast (C. albicans) cells were grown at 37° C. until the cells reached the logarithmic growth phase. Bacterial cells were grown in nutrient media, yeast cells were grown in Sabouraud media (obtainable via Millipore Limited, Watford, England).
(§3) Following the incubation, the log phase cells were washed twice in 0.1 M pH7.0 potassium phosphate buffer. The cells were then resuspended in buffer to give 3.5×10^8 CFU/ml for E. coli and S. aureus, or 1.0×10^7 CFU/ml for C. albicans.
(§4) The cells were incubated for 30 min at 37° C. with 10 μM photosensitiser. Following the incubation 2 mL of the cell suspension was removed into a 30 mm sterile Petri dish. The cell containing dish was then illuminated with a 665 nm Ceramoptec diode laser (trade mark of Ceramoptec GmBH, Germany and obtainable from Biolitec, Germany), at a light dose of 3 J/cm^2 (10 mW/cm^2).
(§5) Cells of the illuminated and non illuminated cultures were serially diluted and plated on either: nutrient agar (E. coli and S. aureus) or sabouraud agar (C. albicans). The plates were incubated for 24 h (E. coli and C. albicans) or 48 h (S. aureus). The colonies on the plates were counted as a measure of cell survival.

E. coli = experiment: Photoinactivation of bacteria by phenoselenazinium derivatives (E. coli); type: cell-based; details: 10 μM photosensitiser, 30 min 37° C., 665 nm laser, 3 J/cm^2 (10 mW/cm^2)
Procedure: as §1, §2, §3, §4, §5

C. albicans = experiment: Photoinactivation of yeast by phenoselenazinium derivatives (C. albicans); type: cell-based; details: 10 μM photosensitiser, 30 min 37° C., 665 nm laser, 3 J/cm^2 (10 mW/cm^2)
Procedure: as §1, §2, §3, §4, §5

[1] = tested on: subcutaneous CaNT tumours; experiment: Anti-tumour efficacy in vivo (PDT, tumour necrosis); parameters: species or system CBA/gy mice; details: 60 J/cm^2 660±15 nm, 72 h after illumination
Procedure: (§6) Tumour destruction was assessed in CBA/gy mice bearing subcutaneous CaNT tumours. The photosensitiser was administered intravenously at doses up to 16.7 μmol/kg. At various times after photosensitiser administration, the tumour was illuminated superficially with 60 J/cm^2, 50 mW/cm^2 light from a Paterson lamp using a 660±15 nm filter. Drug-light intervals ranged from 0 h (in practice, 1-2 minutes) up to 96 h. 72 h after illumination a cross sectional slice was removed from the centre of the tumour parallel to the incident light, an image of this was captured and the macroscopic necrotic area quantified using image analysis software. Necrosis was expressed as % area of the total tumour slice. % tumour necrosis in control tumours was generally <10%.
(§7) The phenoselenazinium compounds were dissolved and administered in a composition comprising 25% Solutol, 10% ethanol, 65% saline vehicle.

[2] = tested on: normal tissues surrounding the tumour (usually kidney); type: in vivo; details: arbitrary score 0-3, i.v. dose 1.67 μmol/Kg
Procedure: as §6
An arbitrary score 0-3 of the severity of damage to normal tissues surrounding the tumour (usually kidney) was also recorded. 0=no detectable damage; 1=minimal damage to one organ; 2=damage to more than one organ; 3=death
as §7

[3] = Singlet oxygen yield relative to Methylene Blue; type: physicochemical; details: in methanol, relative to MB
[4] = Partition coefficient log P; type: physicochemical; details: 2-octanol/0.1 M aqueous potassium phosphate at pH 7
Source text: Partition coefficient (2-octanol/0.1 M aqueous potassium phosphate at pH 7): log P=>2.

[5] = i.v. dose 1.67 μmol/Kg, drug to light interval 0 h
[6] = i.v. dose 1.67 μmol/Kg, drug to light interval 1 h
[7] = i.v. dose 8.4 μmol/Kg, drug to light interval 1 h

CN(C)c1ccc2nc3ccc(N(C)C)cc3[se+]c2c1.[I-] [Compound A, 3,7-N,N-dimethylamino-phenoselenazin-5-ylium iodide, reference compound]
Log change in CFU/mL (S. aureus): 1.74 (0.41) log CFU/mL
Log change in CFU/mL (E. coli): 3.33 (0.01) log CFU/mL
Log change in CFU/mL (C. albicans): 0.19 (0.06) log CFU/mL
% tumour necrosis [1, 5]: 0%
% tumour necrosis [1, 6]: 0%
Normal tissue damage ([2]; drug to light interval 0 h): 0
Normal tissue damage ([2]; drug to light interval 1 h): 0

CCCN(CCC)c1ccc2nc3ccc(N(CCC)CCC)cc3[se+]c2c1 [Compound 2, 3,7-Bis-(N,N-dipropylamino)phenoselenazin-5-ylium iodide]
Log change in CFU/mL (S. aureus): 1.70 (0.48) log CFU/mL
Log change in CFU/mL (E. coli): 3.16 (0.03) log CFU/mL
Log change in CFU/mL (C. albicans): 0.35 (0.42) log CFU/mL
Singlet oxygen yield (relative to Methylene Blue) [3]: 1.1
logP [4]: > 2
% tumour necrosis [1, 5]: 55%
% tumour necrosis ([1]; i.v. dose 8.4 μmol/Kg, drug to light interval 0 h): 87%
% tumour necrosis [1, 7]: 17%
% tumour necrosis ([1]; i.v. dose 16.7 μmol/Kg, drug to light interval 0 h): 100%

CCCCCCN(CCCCCC)c1ccc2nc3ccc(N(CCCCCC)CCCCCC)cc3[se+]c2c1 [Compound 5, 3,7-Bis-(N,N-dihexylamino)phenoselenazin-5-ylium iodide]
Log change in CFU/mL (S. aureus): 0.18 (0.12) log CFU/mL
Log change in CFU/mL (E. coli): 0.02 (0.13) log CFU/mL
Log change in CFU/mL (C. albicans): −0.03 (0.03) log CFU/mL
Singlet oxygen yield (relative to Methylene Blue) [3]: 1.1
logP [4]: > 2
% tumour necrosis [1, 5]: 0%
% tumour necrosis [1, 7]: 30%

CCN(CC)c1ccc2nc3ccc(N(CC)CC)cc3[se+]c2c1 [Compound 3, 3,7-Bis-(N,N-diethylamino)phenoselenazin-5-ylium iodide]
Log change in CFU/mL (S. aureus): 2.72 (0.87) log CFU/mL
Log change in CFU/mL (E. coli): 3.78 (0.28) log CFU/mL
Log change in CFU/mL (C. albicans): 0.16 (0.22) log CFU/mL
Singlet oxygen yield (relative to Methylene Blue) [3]: 1.5
logP [4]: 1.5
% tumour necrosis [1, 5]: 0%
% tumour necrosis [1, 6]: 0%

CCCCN(CCCC)c1ccc2nc3ccc(N(CCC)CCC)cc3[se+]c2c1 [Compound 6, 3-N,N-dibutylamino-7-N,N-dipropylamino-phenoselenazin-5-ylium iodide]
Log change in CFU/mL (S. aureus): 2.66 (2.26) log CFU/mL
Log change in CFU/mL (E. coli): 6.54 (0.00) log CFU/mL
Log change in CFU/mL (C. albicans): 6.12 (0.82) log CFU/mL
Singlet oxygen yield (relative to Methylene Blue) [3]: 1.1
logP [4]: > 2
% tumour necrosis [1, 5]: 75%
% tumour necrosis [1, 6]: 15%

CCCCN(CCCC)c1ccc2nc3ccc(N(CCCC)CCCC)cc3[se+]c2c1 [Compound 1, 3,7-Bis-(N,N-dibutylamino)phenoselenazin-5-ylium bromide]
Log change in CFU/mL (S. aureus): 0.21 (0.01) log CFU/mL
Log change in CFU/mL (E. coli): 5.48 (0.34) log CFU/mL
Log change in CFU/mL (C. albicans): 0.00 (0.05) log CFU/mL
Singlet oxygen yield (relative to Methylene Blue) [3]: 0.9
logP [4]: > 2
% tumour necrosis ([1]; i.v. dose 0.84 μmol/Kg, drug to light interval 0 h): 93%
% tumour necrosis ([1]; i.v. dose 0.84 μmol/Kg, drug to light interval 1 h): 40%
% tumour necrosis [1, 5]: 88%
% tumour necrosis [1, 6]: 88%

CCCCCN(CCCCC)c1ccc2nc3ccc(N(CCCCC)CCCCC)cc3[se+]c2c1 [Compound 4, 3,7-Bis-(N,N-dipentylamino)phenoselenazin-5-ylium iodide]
Log change in CFU/mL (S. aureus): 0.95 (0.73) log CFU/mL
Log change in CFU/mL (E. coli): 3.66 (2.23) log CFU/mL
Log change in CFU/mL (C. albicans): 0.17 (0.02) log CFU/mL
Singlet oxygen yield (relative to Methylene Blue) [3]: 1.4
logP [4]: > 2
% tumour necrosis [1, 5]: 10%
% tumour necrosis ([1]; i.v. dose 4.18 μmol/Kg, drug to light interval 0 h): 45%
% tumour necrosis ([1]; i.v. dose 6.26 μmol/Kg, drug to light interval 0 h): 80%
% tumour necrosis ([1]; i.v. dose 8.34 μmol/Kg, drug to light interval 0 h): 80%
